Reference: publication PMC11134608, “UBR5 forms ligand-dependent complexes on chromatin to regulate nuclear hormone receptor stability” (Molecular cell, 2023)

Tests used:
[1] = test system: androgen receptor (AR); assay: AR fluorescent reporter degradation; assay type: cell-based, human; conditions: n = 3; for AR reporter degradation, significance: CI-4AS-1 5, 10, 20 uM
Description: AR reporters with substitutions to the critical set of residues in the hydrophobic cleft (AR V713, V716, V730, and M734) were generated to match those found in RARA, RXRA, or GR. The wild-type AR reporter was not degraded following treatment with the synthetic AR agonist CI-4AS-1. […] Taken together, the data underscore the essentiality of the NR hydrophobic cleft for UBR5 binding and NR degradation.
Cells were analyzed for GFP vs mCherry expression.

[2] = test system: AR^RARA mutant and UBR5; assay: Co-immunoprecipitation of UBR5 with AR-RARA mutants; assay type: cell-based, human; conditions: ± CI-4AS-1 and MG132
From the text: (§1) Blotting was done as described above.

[3] = test system: GR and UBR5; assay: UBR5/GR interaction in cells (BRET); assay type: cell-based, human; conditions: ± dexamethasone, n = 3
From the text: Bioluminescence resonance energy transfer (BRET) experiments were done using the NanoBRET PPI kit (Promega, N1821) according to manufacturer’s instructions.

[4] = test system: GR; assay: GR degradation (western blot A549; GFP-GR reporter); assay type: cell-based, human
Description: Reporter cell lines were seeded in triplicate at a density of 1 million cells/ml in 100 μl per well in a 96 well plate and measured once. Ligand was added by Digital Dispenser (Tecan), and incubated at 37°C for the appropriate time before reading by flow cytometry. Cells were analyzed for GFP vs mCherry expression. GFP expression was normalized to mCherry signal and ligand treatments were compared to DMSO controls.
Membranes were blocked for 30 minutes to 1 hour at room temperature in Odyssey Blocking Buffer/PBS (LI-COR Biosciences), and incubated with primary antibodies at 4 °C overnight. Stained membranes were washed three times in Tris-buffered saline with Tween 20 (TBS-T) and incubated for 1 hour at room temperature with secondary IRDye-conjugated antibodies (LI-COR Biosciences). Membranes were washed three times in TBS-T before imaging (Odyssey Imaging System, LI-COR Biosciences).

[5] = test system: GR with NCOA2 and UBR5; assay: Co-immunoprecipitation time course for GR; assay type: cell-based, human; conditions: U937 GFP-GR, 0, 6, 12, 16, 24 h dexamethasone
Description: We performed time course co-immunoprecipitation experiments for GR and blotted for NCOA2, GR, and UBR5 at 0, 6, 12, 16, and 24 h following dexamethasone treatment. […] Unlike RARA, which binds constitutively to chromatin, GR is sequestered in the cytoplasm and rapidly translocates to the nucleus following agonist binding.[44],[45]
as §1

[6] = test system: GR and UBR5 on chromatin in A549 cells; assay: ChIP-seq of GR and UBR5 in A549 cells; assay type: cell-based, human
Description: Cell lines were expanded (up to 50 million), treated with ligand, and incubated at 37 °C. Cells were pelleted by centrifugation for 5 minutes, washed twice with cold PBS, and resuspended, in 5 ml of room temperature PBS. 20 μl of 0.5M Disuccinimidyl glutarate (DSG) (ThermoFisher), was added and incubated for 30 minutes at room temperature. Cells were pelleted by centrifugation and resuspended in 8.325 ml of PBS and 8.325 ml of 2% formaldehyde and incubated for 30 minutes at room temperature. Cross-linking was quenched by the addition of 1665 μl of 1 M Tris-HCl pH 8.0 and 832.5 μl of 2.5 M glycine. Cells were pelleted and washed twice with PBS. Cross-linked cells were resuspended in LB1 Buffer (50mM HEPES-KOH, pH7.5, 140mM NaCl, 1mM EDTA, 10% Glycerol, 0.5% NP-40, 0.25% Triton X-100 in distilled water) and rotated for 10 minutes at 4C. Cells were pelleted and resuspended in LB2 (10mM Tris-HCl, pH 8.0, 200mM NaCl, 1mM EDTA, 0.5mM EGTA in distilled water) and rotated for 10 minutes at 4C. Cells were pelleted and resuspended in LB3 (10mM Tris-HCL, pH 8.0, 100mM NaCl, 1mM EDTA, 0.5mM EGTA, 0.1% Na-deoxycholate, 0.5% Na-Lauroylsarcosine, 1% Triton X-100, in distilled water) sonicated (Covaris, E220). […] Fragment length and concentrations were assessed using TapeStation (Agilent) and Qubit (ThermoFisher), and libraries were sequenced on an Illumina NextSeq 550 sequencer. […]

[7] = test system: dexamethasone-regulated gene expression in A549 cells; assay: RNA sequencing of A549 cells; assay type: cell-based, human; conditions: A549, 0, 24, 48 h
Description: Cell lines were expanded, treated with ligand, and incubated at 37C. Cells were pelleted by centrifugation for 5 minutes, washed with cold PBS, and RNA was isolated by RNeasy kit (Qiagen) per manufacturer’s instructions. RNA was sent to Novogene for library preparation and sequencing, or prepared for sequencing (NEBNext, New England Biolabs) and sequenced on an Illumina NextSeq 550 sequencer.
Paired-end reads were aligned to the hg38.p13[81],[82] reference genome with the STAR[83] (v5.2.7b) aligner as part of the RSEM[99] command line tool. Gene transcript abundance was further quantified from aligned fragments using RSEM to generate a gene-by-sample matrix of expected counts. Differential expression was tested, as with the ChIP-seq data, using the DESeq[88],[93]2 and ashr[94] pipeline, this time calculating sample-specific scale factor offset using the method of median-ratio as implemented in the R package EBSeq[100] (v1.36.0). For plotting in heatmaps, genes were selected based on ChIP-seq peak annotation and subset.

[8] = test system: UBR5-ER; assay: In vitro FLAG-UBR5 pull-down of His-tagged ER; assay type: binding, human; conditions: 50 μM ER ligand
Description: 12 μL of FLAG M2 slurry were equilibrated with binding buffer (25 mM HEPES pH 7.4, 125 mM NaCl, 0.05% TWEEN-20). The resin was pelleted and excess buffer removed. 60 μL of fresh binding buffer was re-added, followed by addition of 15 pmol (2.5 μL ofa6 μM solution) of purified FLAG-UBR5 protein and incubated on a rotating wheel at 4°C for 60–90 minutes. The resin was pelleted, excess buffer removed, and 150 μL fresh binding buffer (supplemented with 50 μM ligand of interest or DMSO) added, followed by 150 pmol protein (binding partner protein of interest) and incubated for another 60 minutes. The resin was pelleted, excess buffer removed and washed with 400 μL of binding buffer (supplemented with ligand of interest or DMSO), and this process was repeated three times. The resin was pelleted, excess buffer removed and 45 μL of binding buffer supplemented with 1 mg/mL 3xFLAG peptide was added to elute proteins over 30 minutes on a rotating wheel at room temperature. The resin was pelleted, and 40 μL of the supernatant was collected and mixed with 12 μL of 5xSDS gel loading buffer. 6 μL of these samples were applied to SDS-PAGE on a 4–20% gradient gel (Biorad). The gel was transferred to a nitrocellulose membrane using the Trans-Blot Turbo Transfer System (Biorad). […]

[9] = test system: androgen receptor (AR); conditions: testosterone, ref [48]-[50]; cited from earlier work
From the text: Instead, it is shuttled […] the nucleus following agonist binding and transcriptional activation.[48]–[50] The hydrophobic cleft of AR has several amino acid differences from other NRs, which preferentially accommodate bulkier FxxLF motifs instead of the classic LxxLL.[51],[52] We hypothesized that these sequence differences might also prevent UBR5-mediated degradation and asked whether altering the hydrophobic cleft in AR could c ...

## CN1C(=O)C=C[C@]2(C)[C@H]3CC[C@]4(C)[C@@H](C(=O)Nc5ccccc5Cl)CC[C@H]4[C@@H]3CC[C@@H]12 [CI-4AS-1]
[1]; AR V713F V730L M734V (RXR matched)
  AR reporter degradation, significance: **** (**** p<0.00005)
[1]; AR V713I V730I M734I (RARA matched)
  AR reporter degradation, significance: ** (**p<0.005)
[1]; AR V713I V730L (GR matched)
  AR reporter degradation, significance: **** (**** p<0.00005)
[1]; hydrophobic cleft matched to RARA, RXRA or GR
  degradation of mutant AR reporters: efficiently degraded
[1]; wild-type AR
  degradation of wild-type AR reporter: not degraded
[2]
  UBR5 binding to AR^RARA mutants: strengthened binding in the presence of agonist

## C[C@@H]1C[C@H]2[C@@H]3CCC4=CC(=O)C=C[C@]4(C)[C@@]3(F)[C@@H](O)C[C@]2(C)[C@@]1(O)C(=O)CO [dexamethasone]
[3]
  UBR5 binding to GR in cells: promoted binding of UBR5 to GR in cells
[4]; A549 western blot and reporter
  effect of UBR5 shRNAs on GR degradation: rescued GR degradation
[4]; GFP-GR mutants, likewise mutation of the UBR5 HECT domain
  GR reporter degradation with predicted degron (cleft) mutations: impaired dexamethasone-induced GR degradation
[5]
  sequential binding of NCOA2 and UBR5 to GR: GR sequentially bound NCOA2 and then UBR5
[6]; A549, 15 min and 24 h dexamethasone
  GR ChIP-seq peaks: strikingly gained 15 min after addition of dexamethasone and subsequently decreased following sustained (24 h) dexamethasone treatment
[6]; A549, 15 min dexamethasone
  UBR5 ChIP-seq peaks: strongly increased after 15 min of dexamethasone treatment
[7]
  effect of UBR5 knockdown on dexamethasone-regulated gene expression: alter dexamethasone-regulated gene expression

## C[C@]12CC[C@@H]3c4ccc(O)cc4CC[C@H]3[C@@H]1CC[C@@H]2O [estradiol, beta-Estradiol]
[8]
  UBR5-ER interaction: induced by estradiol

## C[C@]12CC[C@H]3[C@@H](CCC4=CC(=O)CC[C@@]43C)[C@@H]1CC[C@@H]2O [testosterone]
[9]
  AR stability / ligand-induced degradation: stabilized by its endogenous ligand testosterone and does not undergo ligand-induced degradation
